Laboratory results: ChEMBL document CHEMBL1629583, “Establishment of in vitro susceptibility testing methodologies and comparative activities of piperacillin in combination with the penem {beta}-lactamase inhibitor BLI-489” (2009)
Converted amounts (≈) assume the structure as drawn.

Key:
Type in all cases: functional
Burkholderia cepacia = test: Antimicrobial activity against Burkholderia cepacia clinical isolate after 18 to 22 hrs by broth microdilution method
[1] = system: Stenotrophomonas maltophilia; test: Antimicrobial activity against Stenotrophomonas maltophilia clinical isolate after 18 to 22 hrs by broth microdilution method
Pseudomonas aeruginosa = test: Antimicrobial activity against Pseudomonas aeruginosa clinical isolate after 18 to 22 hrs by broth microdilution method
Haemophilus influenzae [2] = test: Antimicrobial activity against beta-lactamase-producing Haemophilus influenzae clinical isolate after 18 to 22 hrs by broth microdilution method
Haemophilus influenzae [3] = test: Antimicrobial activity against beta-lactamase-negative Haemophilus influenzae clinical isolate after 18 to 22 hrs by broth microdilution method
[4] = system: Haemophilus parainfluenzae; test: Antimicrobial activity against Haemophilus parainfluenzae clinical isolate after 18 to 22 hrs by broth microdilution method
Moraxella catarrhalis = test: Antimicrobial activity against Moraxella catarrhalis clinical isolate after 18 to 22 hrs by broth microdilution method
Bacteroides fragilis = test: Antimicrobial activity against Bacteroides fragilis clinical isolate after 18 to 22 hrs by broth microdilution method
[5] = system: Bacteroides thetaiotaomicron; test: Antimicrobial activity against Bacteroides thetaiotaomicron clinical isolate after 18 to 22 hrs by broth microdilution method
Bacteroides uniformis = test: Antimicrobial activity against Bacteroides uniformis clinical isolate after 18 to 22 hrs by broth microdilution method
Clostridium perfringens = test: Antimicrobial activity against Clostridium perfringens clinical isolate after 18 to 22 hrs by broth microdilution method
[6] = system: Peptostreptococcus anaerobius; test: Antimicrobial activity against Peptostreptococcus anaerobius clinical isolate after 18 to 22 hrs by broth microdilution method
Parvimonas micra = test: Antimicrobial activity against Peptostreptococcus micros clinical isolate after 18 to 22 hrs by broth microdilution method
Citrobacter koseri = test: Antimicrobial activity against Citrobacter koseri clinical isolate after 18 to 22 hrs by broth microdilution method
Enterobacter cloacae [7] = test: Antimicrobial activity against Enterobacter cloacae clinical isolate after 18 to 22 hrs by broth microdilution method
Escherichia coli [8] = test: Antimicrobial activity against class A extended spectrum beta-lactamase- and class D OXA- producing Escherichia coli clinical isolate after 18 to 22 hrs by broth microdilution method
Escherichia coli [9] = test: Antimicrobial activity against class A extended spectrum beta-lactamase- producing Escherichia coli clinical isolate after 18 to 22 hrs by broth microdilution method
Escherichia coli [10] = test: Antimicrobial activity against AmpC beta-lactamase-producing Escherichia coli clinical isolate after 18 to 22 hrs by broth microdilution method
Citrobacter freundii [11] = test: Antimicrobial activity against AmpC beta-lactamase-producing Citrobacter freundii clinical isolate after 18 to 22 hrs by broth microdilution method
Klebsiella aerogenes [12] = test: Antimicrobial activity against AmpC beta-lactamase-producing Enterobacter aerogenes clinical isolate after 18 to 22 hrs by broth microdilution method
Enterobacter cloacae [13] = test: Antimicrobial activity against AmpC beta-lactamase-producing Enterobacter cloacae clinical isolate after 18 to 22 hrs by broth microdilution method
Serratia marcescens [14] = test: Antimicrobial activity against AmpC beta-lactamase-producing Serratia marcescens clinical isolate after 18 to 22 hrs by broth microdilution method
Klebsiella aerogenes [15] = test: Antimicrobial activity against Enterobacter aerogenes clinical isolate after 18 to 22 hrs by broth microdilution method
Citrobacter freundii [16] = test: Antimicrobial activity against Citrobacter freundii clinical isolate after 18 to 22 hrs by broth microdilution method
Klebsiella pneumoniae [17] = test: Antimicrobial activity against Klebsiella pneumoniae clinical isolate after 18 to 22 hrs by broth microdilution method
Klebsiella pneumoniae [18] = test: Antimicrobial activity against class A extended spectrum beta-lactamase- producing Klebsiella pneumoniae clinical isolate after 18 to 22 hrs by broth microdilution method
Klebsiella pneumoniae [19] = test: Antimicrobial activity against class A extended spectrum beta-lactamase- and class D OXA- producing Klebsiella pneumoniae clinical isolate after 18 to 22 hrs by broth microdilution method
Klebsiella pneumoniae [20] = test: Antimicrobial activity against AmpC- producing Klebsiella pneumoniae clinical isolate after 18 to 22 hrs by broth microdilution method
Klebsiella oxytoca = test: Antimicrobial activity against Klebsiella oxytoca clinical isolate after 18 to 22 hrs by broth microdilution method
Serratia marcescens [21] = test: Antimicrobial activity against Serratia marcescens clinical isolate after 18 to 22 hrs by broth microdilution method
Morganella morganii = test: Antimicrobial activity against Morganella morganii clinical isolate after 18 to 22 hrs by broth microdilution method
Proteus mirabilis = test: Antimicrobial activity against Proteus mirabilis clinical isolate after 18 to 22 hrs by broth microdilution method
Proteus vulgaris = test: Antimicrobial activity against Proteus vulgaris clinical isolate after 18 to 22 hrs by broth microdilution method
Providencia rettgeri = test: Antimicrobial activity against Providencia rettgeri clinical isolate after 18 to 22 hrs by broth microdilution method
Providencia stuartii = test: Antimicrobial activity against Providencia stuartii clinical isolate after 18 to 22 hrs by broth microdilution method
[22] = system: Acinetobacter calcoaceticus; test: Antimicrobial activity against Acinetobacter calcoaceticus clinical isolate after 18 to 22 hrs by broth microdilution method
Acinetobacter baumannii = test: Antimicrobial activity against Acinetobacter baumannii clinical isolate after 18 to 22 hrs by broth microdilution method
[23] = system: Acinetobacter haemolyticus; test: Antimicrobial activity against Acinetobacter haemolyticus clinical isolate after 18 to 22 hrs by broth microdilution method
Acinetobacter johnsonii = test: Antimicrobial activity against Acinetobacter johnsonii clinical isolate after 18 to 22 hrs by broth microdilution method
Acinetobacter junii = test: Antimicrobial activity against Acinetobacter junii clinical isolate after 18 to 22 hrs by broth microdilution method
Acinetobacter lwoffii = test: Antimicrobial activity against Acinetobacter lwoffii clinical isolate after 18 to 22 hrs by broth microdilution method

With `C[C@@H](O)[C@H]1C(=O)N2C(C(=O)O)=C(SCCNC=N)C[C@H]12` [IMIPENEM ANHYDROUS] the MIC50 (Burkholderia cepacia) was 8 µg/mL (≈ 26.7 µM), the MIC90 (Burkholderia cepacia) was 16 µg/mL (≈ 53.4 µM) and the MIC [1] was > 32 µg/mL. The MIC50 [1] was > 32 µg/mL, the MIC90 [1] was > 32 µg/mL and the MIC50 (Pseudomonas aeruginosa) was 2 µg/mL (≈ 6.68 µM). The MIC90 (Pseudomonas aeruginosa) was 32 µg/mL (≈ 107 µM), the MIC50 (Haemophilus influenzae [2]) was 0.5 µg/mL (≈ 1.67 µM) and the MIC90 (Haemophilus influenzae [2]) was 0.5 µg/mL (≈ 1.67 µM). The MIC (Haemophilus influenzae [3]) was 0.12 µg/mL (≈ 0.401 µM), the MIC50 (Haemophilus influenzae [3]) was 0.05 µg/mL (≈ 0.167 µM) and the MIC90 (Haemophilus influenzae [3]) was 1 µg/mL (≈ 3.34 µM). For the same compound, the MIC50 [4] was 0.25 µg/mL (≈ 0.835 µM), the MIC90 [4] was 0.5 µg/mL (≈ 1.67 µM) and the MIC (Moraxella catarrhalis) was ≤ 0.03 µg/mL. The MIC50 (Moraxella catarrhalis) was ≤ 0.03 µg/mL, the MIC90 (Moraxella catarrhalis) was 0.06 µg/mL (≈ 0.2 µM) and the MIC50 (Bacteroides fragilis) was 0.25 µg/mL (≈ 0.835 µM). It also gave an MIC90 (Bacteroides fragilis) of 0.5 µg/mL (≈ 1.67 µM), an MIC [5] of 0.25 µg/mL (≈ 0.835 µM) and an MIC50 [5] of 0.25 µg/mL (≈ 0.835 µM). For the same compound, the MIC90 [5] was 1 µg/mL (≈ 3.34 µM), the MIC (Bacteroides uniformis) was 0.12 µg/mL (≈ 0.401 µM) and the MIC50 (Bacteroides uniformis) was 0.12 µg/mL (≈ 0.401 µM). It also gave an MIC90 (Bacteroides uniformis) of 0.25 µg/mL (≈ 0.835 µM), an MIC50 (Clostridium perfringens) of 0.06 µg/mL (≈ 0.2 µM) and an MIC90 (Clostridium perfringens) of 0.06 µg/mL (≈ 0.2 µM). For the same compound, the MIC50 [6] was 0.03 µg/mL (≈ 0.1 µM), the MIC90 [6] was 0.06 µg/mL (≈ 0.2 µM) and the MIC50 (Parvimonas micra) was 0.06 µg/mL (≈ 0.2 µM). The MIC90 (Parvimonas micra) was 0.12 µg/mL (≈ 0.401 µM), the MIC50 (Citrobacter koseri) was 0.12 µg/mL (≈ 0.401 µM) and the MIC90 (Citrobacter koseri) was 0.12 µg/mL (≈ 0.401 µM). For the same compound, the MIC50 (Enterobacter cloacae [7]) was 0.5 µg/mL (≈ 1.67 µM), the MIC90 (Enterobacter cloacae [7]) was 1 µg/mL (≈ 3.34 µM) and the MIC (Escherichia coli [8]) was 0.12 µg/mL (≈ 0.401 µM). The MIC50 (Escherichia coli [8]) was 0.12 µg/mL (≈ 0.401 µM), the MIC90 (Escherichia coli [8]) was 0.25 µg/mL (≈ 0.835 µM) and the MIC (Escherichia coli [9]) was 0.12 µg/mL (≈ 0.401 µM). The MIC50 (Escherichia coli [9]) was 0.12 µg/mL (≈ 0.401 µM), the MIC90 (Escherichia coli [9]) was 0.5 µg/mL (≈ 1.67 µM) and the MIC (Escherichia coli [10]) was 0.12 µg/mL (≈ 0.401 µM). For the same compound, the MIC50 (Escherichia coli [10]) was 0.12 µg/mL (≈ 0.401 µM), the MIC90 (Escherichia coli [10]) was 0.25 µg/mL (≈ 0.835 µM) and the MIC (Citrobacter freundii [11]) was 0.5 µg/mL (≈ 1.67 µM). For the same compound, the MIC50 (Citrobacter freundii [11]) was 0.5 µg/mL (≈ 1.67 µM), the MIC90 (Citrobacter freundii [11]) was 2 µg/mL (≈ 6.68 µM) and the MIC (Klebsiella aerogenes [12]) was 0.5 µg/mL (≈ 1.67 µM). It also gave an MIC50 (Klebsiella aerogenes [12]) of 0.5 µg/mL (≈ 1.67 µM), an MIC90 (Klebsiella aerogenes [12]) of 2 µg/mL (≈ 6.68 µM) and an MIC (Enterobacter cloacae [13]) of 0.5 µg/mL (≈ 1.67 µM). It also gave an MIC50 (Enterobacter cloacae [13]) of 0.5 µg/mL (≈ 1.67 µM), an MIC90 (Enterobacter cloacae [13]) of 2 µg/mL (≈ 6.68 µM) and an MIC (Serratia marcescens [14]) of 0.5 µg/mL (≈ 1.67 µM). It also gave an MIC50 (Serratia marcescens [14]) of 0.5 µg/mL (≈ 1.67 µM), an MIC90 (Serratia marcescens [14]) of 2 µg/mL (≈ 6.68 µM) and an MIC50 (Klebsiella aerogenes [15]) of 1 µg/mL (≈ 3.34 µM). It also gave an MIC90 (Klebsiella aerogenes [15]) of 2 µg/mL (≈ 6.68 µM), an MIC50 (Citrobacter freundii [16]) of 1 µg/mL (≈ 3.34 µM) and an MIC90 (Citrobacter freundii [16]) of 1 µg/mL (≈ 3.34 µM). It also gave an MIC50 (Klebsiella pneumoniae [17]) of 0.25 µg/mL (≈ 0.835 µM), an MIC90 (Klebsiella pneumoniae [17]) of 0.5 µg/mL (≈ 1.67 µM) and an MIC50 (Klebsiella pneumoniae [18]) of 0.25 µg/mL (≈ 0.835 µM). The MIC90 (Klebsiella pneumoniae [18]) was 0.5 µg/mL (≈ 1.67 µM), the MIC50 (Klebsiella pneumoniae [19]) was 0.25 µg/mL (≈ 0.835 µM) and the MIC90 (Klebsiella pneumoniae [19]) was 0.5 µg/mL (≈ 1.67 µM). For the same compound, the MIC50 (Klebsiella pneumoniae [20]) was 1 µg/mL (≈ 3.34 µM), the MIC90 (Klebsiella pneumoniae [20]) was 16 µg/mL (≈ 53.4 µM) and the MIC50 (Klebsiella oxytoca) was 0.25 µg/mL (≈ 0.835 µM). It also gave an MIC90 (Klebsiella oxytoca) of 0.5 µg/mL (≈ 1.67 µM), an MIC50 (Serratia marcescens [21]) of 1 µg/mL (≈ 3.34 µM) and an MIC90 (Serratia marcescens [21]) of 2 µg/mL (≈ 6.68 µM). It also gave an MIC50 (Morganella morganii) of 4 µg/mL (≈ 13.4 µM), an MIC90 (Morganella morganii) of 4 µg/mL (≈ 13.4 µM) and an MIC50 (Proteus mirabilis) of 2 µg/mL (≈ 6.68 µM). It also gave an MIC90 (Proteus mirabilis) of 4 µg/mL (≈ 13.4 µM), an MIC50 (Proteus vulgaris) of 2 µg/mL (≈ 6.68 µM) and an MIC90 (Proteus vulgaris) of 4 µg/mL (≈ 13.4 µM). For the same compound, the MIC50 (Providencia rettgeri) was 2 µg/mL (≈ 6.68 µM), the MIC90 (Providencia rettgeri) was 2 µg/mL (≈ 6.68 µM) and the MIC50 (Providencia stuartii) was 2 µg/mL (≈ 6.68 µM). It also gave an MIC90 (Providencia stuartii) of 2 µg/mL (≈ 6.68 µM), an MIC50 [22] of 1 µg/mL (≈ 3.34 µM) and an MIC90 [22] of 32 µg/mL (≈ 107 µM). The MIC50 (Acinetobacter baumannii) was 1 µg/mL (≈ 3.34 µM), the MIC90 (Acinetobacter baumannii) was 32 µg/mL (≈ 107 µM) and the MIC50 [23] was 0.06 µg/mL (≈ 0.2 µM). The MIC90 [23] was 0.5 µg/mL (≈ 1.67 µM), the MIC50 (Acinetobacter johnsonii) was 0.06 µg/mL (≈ 0.2 µM) and the MIC90 (Acinetobacter johnsonii) was 0.5 µg/mL (≈ 1.67 µM). It also gave an MIC50 (Acinetobacter junii) of 0.06 µg/mL (≈ 0.2 µM), an MIC90 (Acinetobacter junii) of 0.5 µg/mL (≈ 1.67 µM) and an MIC50 (Acinetobacter lwoffii) of 0.06 µg/mL (≈ 0.2 µM). For the same compound, the MIC90 (Acinetobacter lwoffii) was 0.5 µg/mL (≈ 1.67 µM).
